Data from patent EP0112685A1, “Compounds containing beta-lactams” (BEECHAM GROUP PLC, priority 1982, dated 1984).

Experiment: Blood levels in mice after oral or subcutaneous administration, assayed by biological β-lactamase inhibition-zone technique
Assay type: in vivo
Settings: for concentration at 0.5 h: 30 mins after administration; for concentration at 0.75 h: 45 mins after administration; for concentration at 1 h: 60 mins after administration; for concentration at 1.5 h: 90 mins after administration; for concentration at 2 h: 120 mins after administration; for AUC: mice
Experimental: The compound of Example 4 was administered either orally (by gastric lavage) or subcutaneously as a solution to groups of mice. At intervals after administration, 5 mice which had received the compound subcutaneously and 10 mice which had received the compound orally were sacrificed, and blood collected from the axillary region. The blood was assayed for content of compound 4 using a biological β-lactamase inhibition-zone assay technique. The mean values (+ standard deviation - SD) are tabulated below.

[1] = mouse, blood, sc, subcutaneous administration, 10 mg/kg, average for 5 mice
[2] = mouse, blood, oral administration, 20 mg/kg, average for 10 mice

- levels in the blood of mice (administered by either an oral or parenteral route, result in words): high and prolonged levels
- concentration at 10 min (mouse, blood, sc, subcutaneous administration, 10 mg/kg, 10 mins after administration, average for 5 mice): 22800 ng/mL
- concentration at 20 min (mouse, blood, sc, subcutaneous administration, 10 mg/kg, 20 mins after administration, average for 5 mice): 17300 ng/mL
- concentration at 0.5 h [1]: 13300 ng/mL
- concentration at 0.75 h [1]: 7700 ng/mL
- concentration at 1 h [1]: 5200 ng/mL
- concentration at 1.5 h [1]: 2700 ng/mL
- concentration at 2 h [1]: 1800 ng/mL
- concentration at 0.25 h (mouse, blood, oral administration, 20 mg/kg, 15 mins after administration, average for 10 mice): 16600 ng/mL
- concentration at 0.5 h [2]: 10500 ng/mL
- concentration at 0.75 h [2]: 7940 ng/mL
- concentration at 1 h [2]: 7420 ng/mL
- concentration at 1.5 h [2]: 3910 ng/mL
- concentration at 2 h [2]: 3200 ng/mL
- AUC (mouse, sc, subcutaneous administration, 10 mg/kg, blood): 15100 ng·h/mL
- AUC (mouse, oral administration, 20 mg/kg, blood): 14300 ng·h/mL
Compound: O=C(O)C1C(=CCOCCCl)OC2CC(=O)N21 (stereo not shown) [Example 4, Lithium 9-0-(2-chloroethyl)clavulanate]
